# Values of other authors as cited in PMC7575488, “Phase 1 dose-escalation study of a novel oral PI3K/mTOR dual inhibitor, LY3023414, in patients with cancer” (Investigational New Drugs, 2020).
# Settings: cited from earlier work; for Stomatitis, mucositis, and mouth sores: clinical studies with mTOR inhibitors
compound,measurement,setting,value
CO[C@H]1C[C@@H]2CC[C@@H](C)[C@@](O)(O2)C(=O)C(=O)N2CCCC[C@H]2C(=O)O[C@H]([C@H](C)C[C@@H]2CC[C@@H](OP(C)(C)=O)[C@H](OC)C2)CC(=O)[C@H](C)/C=C(\C)[C@@H](O)[C@@H](OC)C(=O)[C@H](C)C[C@H](C)/C=C/C=C/C=C/1C [deforolimus],"Stomatitis, mucositis, and mouth sores",,78%
CO[C@H]1C[C@@H]2CC[C@@H](C)[C@@](O)(O2)C(=O)C(=O)N2CCCC[C@H]2C(=O)O[C@H]([C@H](C)C[C@@H]2CC[C@@H](OCCO)[C@H](OC)C2)CC(=O)[C@H](C)/C=C(\C)[C@@H](O)[C@@H](OC)C(=O)[C@H](C)C[C@H](C)/C=C/C=C/C=C/1C [everolimus],Incidence of ILD,"Japan, ref interim report on surveillance of everolimus-induced ILD in Japan",17.4%
same,"Stomatitis, mucositis, and mouth sores",,41%
